From US4260745A, “3-Halo cephalosporins” (Eli Lilly and Company, priority 1979, dated 1981) come the findings set out here.

Molecules are shown by their SMILES. ≈ marks a conversion by molar mass, not a printed value. Like-named read-outs stand apart in the source and are kept apart here.

One data set can be described thus: Electrometric titration. Particulars: 66% aqueous dmf; only or first pKa; read-out: pKa. In kind it is physicochemical.
Data set [1] relates to Methicillin resistant Staphylococcus. The experiment in a line: Gradient Plate technique, MIC. The note with it: Clinical Isolate X400 (methicillin resistant). In kind it is cell-based.
In data set [2] the test system is Escherichia coli. The experiment in a line: standard disc-plate method, zone of inhibition. In kind it is cell-based. The note with it: Table I, read-out: Zone of Inhibition (diameter in mm). An excerpt:
(§1) The in vitro antimicrobial activity of the 3-halo cephalosporins is illustrated by the data in the following tables. Table I contains the antimicrobial activity for 7-[2-(2-thienyl)acetamido]-3-chloro-3-cephem-4-carboxylic acid obtained in the standard Disc-plate method. The numerical values are the diameter in millimeters of the zones of inhibition observed with the named organisms.
(§2) In Table IV below, the in vitro antimicrobial activity of 7-[2-(2-thienyl)acetamido]-3-bromo-3-cephem-4-carboxylic acid is presented for several illustrative microorganisms. The data presented were obtained in the standard disc-plate method with the numerical values recording the diameter in millimeters of the zones of inhibition observed with the named microorganisms.

In the next data set the test system is Sarcina lutea. Briefly: standard disc-plate method, zone of inhibition. The note with it: Micrococcus luteus, Table I, read-out: Zone of Inhibition (diameter in mm). In kind it is cell-based.
From the text: as §1, §2

The next data set deals with Staphylococcus aureus. Briefly: standard disc-plate method, zone of inhibition. It counts as cell-based. Particulars: Table I, read-out: Zone of Inhibition (diameter in mm).
From the text: as §1, §2

The test system of the next data set is Mycobacterium avium. The experiment in a line: standard disc-plate method, zone of inhibition. The note with it: 1.0 mg/ml, Table I, read-out: Zone of Inhibition (diameter in mm). It counts as cell-based.
From the text: as §1, §2

Another data set relates to Bacillus subtilis. The experiment in a line: standard disc-plate method, zone of inhibition. It counts as cell-based. The note with it: Table I, read-out: Zone of Inhibition (diameter in mm).
From the text: as §1, §2

A further data set concerns Proteus vulgaris. Briefly: standard disc-plate method, zone of inhibition. In kind it is cell-based. The note with it: 1.0 mg/ml, Table I, read-out: Zone of Inhibition (diameter in mm).
From the text: as §1, §2

The subject of data set [3] is Klebsiella pneumoniae. Briefly: standard disc-plate method, zone of inhibition. The note with it: Table I, read-out: Zone of Inhibition (diameter in mm). In kind it is cell-based.
From the text: as §1, §2

Data set [4] has as its system Pseudomonas solanacearcum. The experiment in a line: standard disc-plate method, zone of inhibition. In kind it is cell-based. Particulars: Pseudomonas, Table I, read-out: Zone of Inhibition (diameter in mm).
From the text: as §1, §2

In a further data set the test system is Salmonella gallinarum. The experiment in a line: standard disc-plate method, zone of inhibition. In kind it is cell-based. The note with it: Salmonella enterica, GALLINARUM, Table I, read-out: Zone of Inhibition (diameter in mm).
From the text: as §1, §2

The subject of data set [5] is Escherichia coli. Briefly: Gradient Plate technique, MIC. In kind it is cell-based. The note with it: read-out: Minimum Inhibitory Concentration. An excerpt:
(§3) The following Table II lists the minimum inhibitory concentration (MIC) for 7-[2-(2-thienyl)acetamido]-3-chloro-3-cephem-4-carboxylic acid against penicillin resistant Staphylococcus both in the presence of and absence of serum. The MIC values were obtained by the Gradient Plate technique carried out essentially as described by Bryson and Szybalski, Science, 116, 45 (1952).
(§4) In Table III, below, the MIC values for the test compound of Tables I and II against representative gram-negative organisms is presented. The data were obtained by the Gradient Plate technique.
(§5) The minimum inhibitory concentrations for 7-[2-(2-thienyl)acetamido]-3-bromo-3-cephem-4-carboxylic acid against representative gram-negative bacteria is presented in Table VI. The data were obtained by the Gradient Plate Method.
(§6) Tables VII and VIII list the minimum inhibitory concentrations of the test compound effective against representative penicillin resistant Staphylococcus strains, while […] the MIC values obtained against representative gram-negative microorganisms. The data were obtained by the Gradient Plate method.

A further data set has as its system Serratia marcescens. Briefly: Gradient Plate technique, MIC. In kind it is cell-based. The note with it: read-out: Minimum Inhibitory Concentration.
From the text: as §3, §4, §5, §6

For a further data set, the system named is Salmonella heidelberg. The experiment in a line: Gradient Plate technique, MIC. The note with it: Salmonella enterica, read-out: Minimum Inhibitory Concentration. It counts as cell-based.
From the text: as §3, §4, §5, §6

Another data set concerns Aerobacter aerogenes. The experiment in a line: Gradient Plate technique, MIC. It counts as cell-based. The note with it: Klebsiella aerogenes, read-out: Minimum Inhibitory Concentration.
From the text: as §3, §4, §5, §6

The next data set deals with Pseudomonas aeruginosa. The experiment in a line: Gradient Plate technique, MIC. In kind it is cell-based. Particulars: read-out: Minimum Inhibitory Concentration.
From the text: as §3, §4, §5, §6

In the next data set the test system is Shigella sp. The experiment in a line: Gradient Plate technique, MIC. It counts as cell-based. The note with it: read-out: Minimum Inhibitory Concentration.
From the text: as §3, §4, §5, §6

The test system of data set [6] is Klebsiella pneumoniae. Briefly: Gradient Plate technique, MIC. Particulars: read-out: Minimum Inhibitory Concentration. In kind it is cell-based.
From the text: as §3, §4, §5, §6

The test system of data set [7] is Escherichia coli. The experiment in a line: standard disc-plate method, zone of inhibition. In kind it is cell-based. The note with it: 0.01 mg/ml; Table I. Details: key: H: hazy zone of inhibition; Tr: trace zone of inhibition.
From the text: as §1, §2

The test system of data set [8] is Penicillin Resistant Staphylococcus. The experiment in a line: Gradient Plate technique, MIC. It counts as cell-based. The note with it: read-out: Minimum Inhibitory Concentration. An excerpt:
The following Table II lists the minimum inhibitory concentration (MIC) for 7-[2-(2-thienyl)acetamido]-3-chloro-3-cephem-4-carboxylic acid against penicillin resistant Staphylococcus both in the presence of and absence of serum. The MIC values were obtained by the Gradient Plate technique carried out essentially as described by Bryson and Szybalski, Science, 116, 45 (1952). […]

On to `O=C(Cc1cccs1)NC1C(=O)N2C(C(=O)OCc3ccc([N+](=O)[O-])cc3)=C(O)CS[C@H]12` (stereo partly drawn) [Example 12, p-Nitrobenzyl 7-[2-(2-thienyl)acetamido]-3-hydroxy-3-cephem-4-carboxylate], for which, in “Electrometric titration”, the pKa worked out at 5.9.
For `O=C(Cc1cccs1)NC1C(=O)N2C(C(=O)O)=C(Cl)CS[C@H]12` (stereo partly drawn) [7-[2-(2-Thienyl)acetamido]-3-chloro-3-cephem-4-carboxylic acid], the “Minimum Inhibitory Concentration” value in data set [1] (Serum) was more than 20 µg/mL. Also, the MIC in [1] (Staphylococcus, No Serum, read-out: Minimum Inhibitory Concentration) was more than 20 µg/mL; in the data set with Escherichia coli [5] it was 18.5 µg/mL (≈ 51.6 µM); in the data set on Serratia marcescens, more than 200 µg/mL; with Salmonella heidelberg it was 0.8 µg/mL (≈ 2.23 µM); with Aerobacter aerogenes, 0.8 µg/mL (≈ 2.23 µM); in the data set on Pseudomonas aeruginosa, more than 200 µg/mL. Besides, the MIC was 25 µg/mL (≈ 69.7 µM) in the data set on Shigella sp.; 0.6 µg/mL (≈ 1.67 µM) in the data set on Klebsiella pneumoniae [6]; 8.4 µg/mL (≈ 23.4 µM) in data set [8] (Clinical Isolate V 32, No Serum); more than 20 µg/mL in data set [8] (Clinical Isolate V 32, Serum); 5 µg/mL (≈ 13.9 µM) in [8] (Clinical Isolate V 41, No Serum); 7 µg/mL (≈ 19.5 µM) in [8] (Clinical Isolate V 41, Serum). Further, the MIC is 0.8 µg/mL (≈ 2.23 µM) in data set [8] (Clinical Isolate V 84, No Serum); 1 µg/mL (≈ 2.79 µM) in data set [8] (Clinical Isolate V 84, Serum); 0.2 µg/mL (≈ 0.557 µM) in data set [8] (Clinical Isolate X 1.1, No Serum); less than 0.1 µg/mL in data set [8] (Clinical Isolate X 1.1, Serum). In addition, the zone of inhibition at 100 µg/mL in the data set on Escherichia coli [2] (0.1 mg/ml) was determined as 19 mm; in the data set with Sarcina lutea (0.1 mg/ml), 28 mm; in the data set with Staphylococcus aureus (0.1 mg/ml), 29 mm; in the data set on Bacillus subtilis (0.1 mg/ml), 40 mm; in the data set on Klebsiella pneumoniae [3] (0.1 mg/ml) it was 27 mm; in data set [4] (0.1 mg/ml) it was 21 mm. In the data set on Salmonella gallinarum (0.1 mg/ml), the zone of inhibition at 100 µg/mL came to 22 mm. In addition, the zone of inhibition at 1000 µg/mL with Escherichia coli [2] (1.0 mg/ml) worked out at 24 mm; in the data set with Sarcina lutea (1.0 mg/ml), 37 mm; in the data set with Staphylococcus aureus (1.0 mg/ml), 31 mm; with Mycobacterium avium it was 14 mm; in the data set with Bacillus subtilis (1.0 mg/ml), 48 mm; in the data set with Proteus vulgaris, 17 mm. For the same compound, the zone of inhibition at 1000 µg/mL was 36 mm with Klebsiella pneumoniae [3] (1.0 mg/ml), 28 mm in data set [4] (1.0 mg/ml) and 32 mm in the data set on Salmonella gallinarum (1.0 mg/ml). Besides, the zone of inhibition at 10 µg/mL in the data set with Sarcina lutea (0.01 mg/ml) stood at 21 mm; in the data set on Staphylococcus aureus (0.01 mg/ml), 20 mm; in the data set on Bacillus subtilis (0.01 mg/ml), 24 mm; in the data set on Klebsiella pneumoniae [3] (0.01 mg/ml) it was 13 mm. Also, the “Zone of Inhibition (diameter in mm)” value in the data set on Escherichia coli [7] was “Tr”.

The pKa is the negative logarithm of the acid dissociation constant. The zone of inhibition is the extent of the growth-free halo in a diffusion test.
